What was measured:
Olfr937 = target: T1, Olfr937 (Mus musculus, UniProt Q9EQB4); experiment: Glosensor cAMP luminescence dose-response, Hana3A cells; type: cell-based; details: antagonist of whiskey lactone response; 316 uM
T1 sequence (Q9EQB4 1-311): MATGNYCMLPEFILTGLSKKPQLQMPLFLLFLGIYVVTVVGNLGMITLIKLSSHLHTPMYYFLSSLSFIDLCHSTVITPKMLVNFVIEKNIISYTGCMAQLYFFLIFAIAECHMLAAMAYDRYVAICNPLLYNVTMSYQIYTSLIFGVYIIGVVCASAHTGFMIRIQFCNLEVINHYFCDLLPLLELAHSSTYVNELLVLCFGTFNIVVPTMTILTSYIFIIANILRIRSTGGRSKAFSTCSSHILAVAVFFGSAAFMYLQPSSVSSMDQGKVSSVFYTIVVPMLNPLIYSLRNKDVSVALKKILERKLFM

Olfr774 = target: T2, Olfr774 (Mus musculus, UniProt Q7TRI5); experiment: as above; type: cell-based; details: agonist
T2 sequence (Q7TRI5 1-312): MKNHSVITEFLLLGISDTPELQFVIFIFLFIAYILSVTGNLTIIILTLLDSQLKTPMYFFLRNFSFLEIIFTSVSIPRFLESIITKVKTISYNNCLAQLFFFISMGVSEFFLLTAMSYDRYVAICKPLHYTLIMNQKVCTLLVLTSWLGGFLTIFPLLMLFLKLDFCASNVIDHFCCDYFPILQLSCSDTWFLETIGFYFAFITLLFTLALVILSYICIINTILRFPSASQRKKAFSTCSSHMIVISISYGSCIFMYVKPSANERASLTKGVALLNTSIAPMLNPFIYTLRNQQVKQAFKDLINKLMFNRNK

Row | SMILES | Glosensor cAMP luminescence dose-response, Hana3A cells (Olfr937) | Glosensor cAMP luminescence dose-response, Hana3A cells (Olfr774)
1 | CC(C)(C)c1ccc(CCC=O)cc1 [bourgeonal, 3-(4-tert-butylphenyl)propanal] | bourgeonal and lyral also suppressed Olfr937 responses to whiskey lactone, with bourgeonal being more effective | –
2 | CCCCCCCCCCC=O [undecanal] | – | In vitro testing confirmed that Olfr774 responded to undecanal but not to bourgeonal

Reference: publication PMC7138139 (Molecular and cellular neurosciences, 2020)
